Assay results published in patent US20250296934A1, “AZEPINOINDOLES AND METHODS OF PREPARATION THEREOF” (priority 2022, published 2025).

Target: 5-HT5A (Homo sapiens, UniProt P47898)
Test: 5-HT receptor activity (Table 3), 5-HT5A
Type: cell-based
Details: not given

Sequence of 5-HT5A (P47898 whole entry, species assumed): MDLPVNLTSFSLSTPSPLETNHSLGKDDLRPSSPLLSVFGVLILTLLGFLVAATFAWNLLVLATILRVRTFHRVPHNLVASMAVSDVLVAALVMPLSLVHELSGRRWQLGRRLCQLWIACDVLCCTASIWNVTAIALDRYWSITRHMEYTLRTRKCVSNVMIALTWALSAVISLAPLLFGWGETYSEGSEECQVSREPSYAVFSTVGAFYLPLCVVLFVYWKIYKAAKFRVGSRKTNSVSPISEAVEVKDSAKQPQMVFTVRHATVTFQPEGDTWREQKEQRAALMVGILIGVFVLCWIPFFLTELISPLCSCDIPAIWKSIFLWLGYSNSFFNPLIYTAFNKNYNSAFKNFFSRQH

SMILES | Eff [%]
CN(C)CCc1c[nH]c2cccc(O)c12 [psilocin, reference compound] | 48

Tested on: not listed separately
Test: In vitro hepatocyte clearance, mouse
Type: in vitro ADME
Details: Mouse hepatocytes
Procedure: (§1) Additional experimentation was performed on compounds 1, W5, and A93. Table 6a, 6b and 6c summarize, among other things, the anticipated hepatic clearance of compounds 1, W5 and A93 respectively, in various species, as specified in Table 6a, 6b and 6c and as determined by calculating the in vitro hepatocyte clearance over time and scaling such rate with such species' hepatocyte count and the anticipated liver blood flow rate in such species.

SMILES | hepatocyte CLint [µL/min/1e6 cells]
Cc1ccc(O)c2c3c([nH]c12)CCN(C)CC3 [Cpd #14 (W5)] | 40.7
Oc1cccc2[nH]c3c(c12)CCNCC3 [Cpd #67 (A93)] | < 2.71

Same assay, conditions: Mouse hepatocytes; read-out: In vitro T1/2

SMILES | half-life [h]
Cc1ccc(O)c2c3c([nH]c12)CCN(C)CC3 [Cpd #14 (W5)] | 0.568
Oc1cccc2[nH]c3c(c12)CCNCC3 [Cpd #67 (A93)] | > 8.53

Same assay, conditions: Mouse hepatocytes; read-out: Scale-up Clint

SMILES | CLint scaled [mL/min/kg]
Cc1ccc(O)c2c3c([nH]c12)CCN(C)CC3 [Cpd #14 (W5)] | 480
Oc1cccc2[nH]c3c(c12)CCNCC3 [Cpd #67 (A93)] | < 32

Tested on: hepatocyte
Test: In vitro hepatocyte clearance, mouse
Type: in vitro ADME
Details: Mouse
Procedure: as §1

SMILES | Hepatic Extraction Ratio (E) | Predicted hepatic CL [mL/min/kg]
Cc1ccc(O)c2c3c([nH]c12)CCN(C)CC3 [Cpd #14 (W5)] | 0.84 | 75.80
Oc1cccc2[nH]c3c(c12)CCNCC3 [Cpd #67 (A93)] | <0.26 | <23.60

Target: T1, 5-HT2A (Homo sapiens, UniProt P28223)
Test: 5-HT2A Gq dissociation BRET functional assay
Type: cell-based
Set-up: expressed in transfected cells; host or cells: HEK293T
Details: not given

T1 sequence (P28223 whole entry): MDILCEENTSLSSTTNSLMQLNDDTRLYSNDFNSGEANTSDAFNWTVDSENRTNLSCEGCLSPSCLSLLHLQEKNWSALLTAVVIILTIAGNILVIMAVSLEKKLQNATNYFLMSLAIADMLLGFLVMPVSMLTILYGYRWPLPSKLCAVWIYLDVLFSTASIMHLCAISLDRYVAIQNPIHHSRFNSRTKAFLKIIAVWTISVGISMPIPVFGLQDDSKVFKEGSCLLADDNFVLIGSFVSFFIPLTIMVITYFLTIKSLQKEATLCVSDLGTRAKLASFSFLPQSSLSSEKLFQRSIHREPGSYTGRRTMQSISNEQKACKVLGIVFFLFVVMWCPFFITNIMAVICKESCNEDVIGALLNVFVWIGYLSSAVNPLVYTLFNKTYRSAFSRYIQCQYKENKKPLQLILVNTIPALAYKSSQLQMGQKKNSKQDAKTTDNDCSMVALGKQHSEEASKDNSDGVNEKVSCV

SMILES | EC50 [nM]
Cc1ccc(O)c2c3c([nH]c12)CCN(C)CC3 [Cpd #14 (W5)] | 3.9
Cc1ccc(O)c2c3c([nH]c12)CCN(Cc1ccccc1O)CC3 [Cpd #18 (A90)] | 31
Cc1cc(F)c(O)c2c3c([nH]c12)CCNCC3 [Cpd #27 (A92)] | 6.2
Cc1ccc(O)c2c3c([nH]c12)C(C)CNCC3 (stereo not drawn) [Cpd #45 (W8)] | 6.4
Oc1cccc2[nH]c3c(c12)CCNCC3 [Cpd #67 (A93)] | 4

Same assay, conditions: normalized to % 5-HT stimulation

SMILES | 5-HT2A BRET Eff [%]
Cc1ccc(O)c2c3c([nH]c12)CCN(C)CC3 [Cpd #14 (W5)] | 89
Cc1ccc(O)c2c3c([nH]c12)CCN(Cc1ccccc1O)CC3 [Cpd #18 (A90)] | 76
Cc1cc(F)c(O)c2c3c([nH]c12)CCNCC3 [Cpd #27 (A92)] | 97
Cc1ccc(O)c2c3c([nH]c12)C(C)CNCC3 (stereo not drawn) [Cpd #45 (W8)] | 98
Oc1cccc2[nH]c3c(c12)CCNCC3 [Cpd #67 (A93)] | 97
CN(C)CCc1c[nH]c2cccc(O)c12 [psilocin, reference compound] | 82

Target: T2, 5-HT1A (Homo sapiens, UniProt P08908)
T2 sequence (P08908 1-422): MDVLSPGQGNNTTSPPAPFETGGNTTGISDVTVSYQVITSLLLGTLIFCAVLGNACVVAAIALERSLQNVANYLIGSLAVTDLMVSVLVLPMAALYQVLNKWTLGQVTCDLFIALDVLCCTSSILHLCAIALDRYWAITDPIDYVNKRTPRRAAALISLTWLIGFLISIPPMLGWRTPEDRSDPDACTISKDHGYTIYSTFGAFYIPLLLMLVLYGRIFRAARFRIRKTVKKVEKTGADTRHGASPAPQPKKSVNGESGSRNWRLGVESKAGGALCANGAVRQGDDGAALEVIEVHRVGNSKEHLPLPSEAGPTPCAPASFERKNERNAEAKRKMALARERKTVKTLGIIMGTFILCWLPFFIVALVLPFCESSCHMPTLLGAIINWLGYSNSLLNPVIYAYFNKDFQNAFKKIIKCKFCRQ
Test: 5-HT receptor activity (Table 3), 5-HT1A
Type: cell-based
Details: not given

SMILES | Eff [%]
CN(C)CCc1c[nH]c2cccc(O)c12 [psilocin, reference compound] | 93

Target: T3, 5-HT2B (Homo sapiens, UniProt P41595)
Test: 5-HT receptor activity (Table 3), 5-HT2B
Type: cell-based
Details: 5-HT2B, Table 3
Target sequence in this assay (P41595 whole entry, species assumed): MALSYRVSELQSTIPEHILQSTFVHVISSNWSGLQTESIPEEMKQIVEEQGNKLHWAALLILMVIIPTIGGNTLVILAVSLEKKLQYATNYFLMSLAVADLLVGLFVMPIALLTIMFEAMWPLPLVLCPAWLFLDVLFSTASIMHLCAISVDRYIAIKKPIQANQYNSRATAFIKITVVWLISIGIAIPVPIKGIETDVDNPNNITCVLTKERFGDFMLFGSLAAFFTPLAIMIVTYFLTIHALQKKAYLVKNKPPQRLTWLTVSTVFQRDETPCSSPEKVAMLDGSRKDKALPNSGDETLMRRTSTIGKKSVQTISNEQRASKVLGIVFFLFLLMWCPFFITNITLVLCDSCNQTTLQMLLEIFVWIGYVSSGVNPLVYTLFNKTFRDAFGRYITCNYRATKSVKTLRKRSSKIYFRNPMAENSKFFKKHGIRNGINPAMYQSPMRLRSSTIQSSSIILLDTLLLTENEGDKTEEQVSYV

SMILES | Eff [%]
CN(C)CCc1c[nH]c2cccc(O)c12 [psilocin, reference compound] | 32

Tested on: not listed separately
Test: In vitro hepatocyte clearance, human
Type: in vitro ADME
Details: Human hepatocytes
Procedure: as §1

SMILES | hepatocyte CLint [µL/min/1e6 cells]
Cc1ccc(O)c2c3c([nH]c12)CCN(C)CC3 [Cpd #14 (W5)] | 1.26
Oc1cccc2[nH]c3c(c12)CCNCC3 [Cpd #67 (A93)] | < 2.71

Same assay, conditions: Human hepatocytes; read-out: In vitro T1/2

SMILES | half-life [h]
Cc1ccc(O)c2c3c([nH]c12)CCN(C)CC3 [Cpd #14 (W5)] | 20.9
Oc1cccc2[nH]c3c(c12)CCNCC3 [Cpd #67 (A93)] | > 8.53

Same assay, conditions: Human hepatocytes; read-out: Scale-up Clint

SMILES | CLint scaled [mL/min/kg]
Cc1ccc(O)c2c3c([nH]c12)CCN(C)CC3 [Cpd #14 (W5)] | 3.22
Oc1cccc2[nH]c3c(c12)CCNCC3 [Cpd #67 (A93)] | < 6.89

Tested on: hepatocyte
Test: In vitro hepatocyte clearance, human
Type: in vitro ADME
Details: Human
Procedure: as §1

SMILES | Hepatic Extraction Ratio (E) | Predicted hepatic CL [mL/min/kg]
Cc1ccc(O)c2c3c([nH]c12)CCN(C)CC3 [Cpd #14 (W5)] | 0.13 | 2.74
Oc1cccc2[nH]c3c(c12)CCNCC3 [Cpd #67 (A93)] | <0.25 | <5.17

Target: 5-HT7 (Homo sapiens, UniProt P34969)
Test: 5-HT receptor activity (Table 3), 5-HT7
Type: cell-based
Details: not given

Sequence of 5-HT7 (P34969 whole entry, species assumed): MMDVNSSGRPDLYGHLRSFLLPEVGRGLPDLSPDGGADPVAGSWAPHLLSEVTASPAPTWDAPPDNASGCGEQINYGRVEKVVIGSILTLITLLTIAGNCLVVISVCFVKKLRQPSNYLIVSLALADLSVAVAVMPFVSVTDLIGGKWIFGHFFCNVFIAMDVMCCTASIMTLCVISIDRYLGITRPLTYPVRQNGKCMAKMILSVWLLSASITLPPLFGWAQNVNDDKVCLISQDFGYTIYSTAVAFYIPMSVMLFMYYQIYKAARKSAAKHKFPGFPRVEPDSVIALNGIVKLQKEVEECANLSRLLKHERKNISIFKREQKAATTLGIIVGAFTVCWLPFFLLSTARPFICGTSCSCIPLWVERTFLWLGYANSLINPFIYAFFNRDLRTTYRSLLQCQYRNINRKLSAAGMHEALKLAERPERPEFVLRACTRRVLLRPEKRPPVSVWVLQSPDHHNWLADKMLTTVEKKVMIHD

SMILES | Eff [%]
CN(C)CCc1c[nH]c2cccc(O)c12 [psilocin, reference compound] | 86

Target: 5-HT1B (Homo sapiens, UniProt P28222)
Test: 5-HT receptor activity (Table 3), 5-HT1B
Type: cell-based
Details: not given

Sequence of 5-HT1B (P28222 whole entry, species assumed): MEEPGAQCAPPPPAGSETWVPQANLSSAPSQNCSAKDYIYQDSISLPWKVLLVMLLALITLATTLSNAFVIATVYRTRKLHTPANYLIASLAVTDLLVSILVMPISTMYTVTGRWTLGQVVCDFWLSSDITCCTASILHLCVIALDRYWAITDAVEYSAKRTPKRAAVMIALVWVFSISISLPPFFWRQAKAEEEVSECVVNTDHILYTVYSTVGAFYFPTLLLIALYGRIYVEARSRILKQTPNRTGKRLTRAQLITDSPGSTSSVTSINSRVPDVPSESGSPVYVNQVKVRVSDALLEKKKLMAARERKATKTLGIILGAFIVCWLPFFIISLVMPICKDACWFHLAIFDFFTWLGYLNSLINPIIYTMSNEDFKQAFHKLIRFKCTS

SMILES | Eff [%]
CN(C)CCc1c[nH]c2cccc(O)c12 [psilocin, reference compound] | 94

Target: T4, 5-HT2C (Homo sapiens, UniProt P28335)
T4 sequence (P28335 33-458): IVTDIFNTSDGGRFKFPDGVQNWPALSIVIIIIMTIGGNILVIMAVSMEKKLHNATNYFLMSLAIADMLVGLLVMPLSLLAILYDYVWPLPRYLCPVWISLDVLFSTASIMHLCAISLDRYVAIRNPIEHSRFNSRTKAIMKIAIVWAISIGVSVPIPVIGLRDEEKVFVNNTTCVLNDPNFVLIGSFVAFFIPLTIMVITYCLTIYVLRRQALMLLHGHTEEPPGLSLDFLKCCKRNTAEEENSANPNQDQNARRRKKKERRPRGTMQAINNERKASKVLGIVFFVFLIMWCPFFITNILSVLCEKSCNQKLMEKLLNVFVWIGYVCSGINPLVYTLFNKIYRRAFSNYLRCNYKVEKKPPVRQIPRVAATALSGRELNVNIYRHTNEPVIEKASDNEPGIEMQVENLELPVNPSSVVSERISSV
Test: cell-based
Type: cell-based
Set-up: expressed in transfected cells; host or cells: HEK293T
Details: Gq dissociation BRET, HEK293T

SMILES | EC50 [nM]
Cc1ccc(O)c2c3c([nH]c12)CCN(C)CC3 [Cpd #14 (W5)] | 1.3
Cc1ccc(O)c2c3c([nH]c12)CCN(Cc1ccccc1O)CC3 [Cpd #18 (A90)] | 24
Cc1cc(F)c(O)c2c3c([nH]c12)CCNCC3 [Cpd #27 (A92)] | 2.8
Cc1ccc(O)c2c3c([nH]c12)C(C)CNCC3 (stereo not drawn) [Cpd #45 (W8)] | 1.2
Oc1cccc2[nH]c3c(c12)CCNCC3 [Cpd #67 (A93)] | 5.7

Same assay, conditions: normalized to % 5-HT stimulation

SMILES | 5-HT2C BRET Eff [%]
Cc1ccc(O)c2c3c([nH]c12)CCN(C)CC3 [Cpd #14 (W5)] | 87
Cc1ccc(O)c2c3c([nH]c12)CCN(Cc1ccccc1O)CC3 [Cpd #18 (A90)] | 93
Cc1cc(F)c(O)c2c3c([nH]c12)CCNCC3 [Cpd #27 (A92)] | 101
Cc1ccc(O)c2c3c([nH]c12)C(C)CNCC3 (stereo not drawn) [Cpd #45 (W8)] | 99
Oc1cccc2[nH]c3c(c12)CCNCC3 [Cpd #67 (A93)] | 94

Target: 5-HT1E (Homo sapiens, UniProt P28566)
Test: 5-HT receptor activity (Table 3), 5-HT1E
Type: cell-based
Details: not given

Sequence of 5-HT1E (P28566 whole entry, species assumed): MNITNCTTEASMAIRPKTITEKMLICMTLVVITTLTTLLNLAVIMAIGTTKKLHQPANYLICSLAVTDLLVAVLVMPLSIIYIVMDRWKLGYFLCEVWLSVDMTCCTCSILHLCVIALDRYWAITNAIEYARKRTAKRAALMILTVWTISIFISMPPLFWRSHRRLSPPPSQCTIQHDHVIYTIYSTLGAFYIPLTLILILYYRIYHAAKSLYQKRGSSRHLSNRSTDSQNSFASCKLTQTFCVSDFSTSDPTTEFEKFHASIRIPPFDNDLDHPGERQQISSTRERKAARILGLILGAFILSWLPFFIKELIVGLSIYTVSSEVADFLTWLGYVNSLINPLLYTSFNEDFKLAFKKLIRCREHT

SMILES | Eff [%]
CN(C)CCc1c[nH]c2cccc(O)c12 [psilocin, reference compound] | 90

Target: T3, 5-HT2B
Test: 5-HT2B Gq dissociation BRET functional assay
Type: cell-based
Set-up: expressed in transfected cells; host or cells: HEK293T
Details: not given
Target sequence in this assay (P41595 whole entry): as the sequence (P41595 whole entry, species assumed) above

SMILES | EC50 [nM]
Cc1ccc(O)c2c3c([nH]c12)CCN(C)CC3 [Cpd #14 (W5)] | 22.7
Cc1ccc(O)c2c3c([nH]c12)CCN(Cc1ccccc1O)CC3 [Cpd #18 (A90)] | 2.7
Cc1cc(F)c(O)c2c3c([nH]c12)CCNCC3 [Cpd #27 (A92)] | 14
Cc1ccc(O)c2c3c([nH]c12)C(C)CNCC3 (stereo not drawn) [Cpd #45 (W8)] | 1.3
Oc1cccc2[nH]c3c(c12)CCNCC3 [Cpd #67 (A93)] | 55.7

Same assay, conditions: normalized to % 5-HT stimulation

SMILES | 5-HT2B BRET Eff [%]
Cc1ccc(O)c2c3c([nH]c12)CCN(C)CC3 [Cpd #14 (W5)] | 25
Cc1ccc(O)c2c3c([nH]c12)CCN(Cc1ccccc1O)CC3 [Cpd #18 (A90)] | −2.6
Cc1cc(F)c(O)c2c3c([nH]c12)CCNCC3 [Cpd #27 (A92)] | 77
Cc1ccc(O)c2c3c([nH]c12)C(C)CNCC3 (stereo not drawn) [Cpd #45 (W8)] | 54
Oc1cccc2[nH]c3c(c12)CCNCC3 [Cpd #67 (A93)] | 57
CN(C)CCc1c[nH]c2cccc(O)c12 [psilocin, reference compound] | 63

Target: 5-HT6 (Homo sapiens, UniProt P50406)
Test: 5-HT receptor activity (Table 3), 5-HT6
Type: cell-based
Details: not given

Sequence of 5-HT6 (P50406 whole entry, species assumed): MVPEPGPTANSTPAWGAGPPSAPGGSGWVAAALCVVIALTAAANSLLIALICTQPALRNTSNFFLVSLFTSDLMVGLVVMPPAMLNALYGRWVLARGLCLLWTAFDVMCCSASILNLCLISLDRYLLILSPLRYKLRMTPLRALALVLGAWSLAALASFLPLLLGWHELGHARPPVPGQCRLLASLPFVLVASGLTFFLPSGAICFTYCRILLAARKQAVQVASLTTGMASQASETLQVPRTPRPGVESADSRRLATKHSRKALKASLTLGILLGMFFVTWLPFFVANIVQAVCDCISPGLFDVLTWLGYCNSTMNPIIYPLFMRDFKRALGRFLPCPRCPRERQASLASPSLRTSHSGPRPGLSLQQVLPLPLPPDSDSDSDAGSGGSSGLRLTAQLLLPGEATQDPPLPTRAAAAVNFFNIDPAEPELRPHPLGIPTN

SMILES | Eff [%]
CN(C)CCc1c[nH]c2cccc(O)c12 [psilocin, reference compound] | 74

Target: T5, 5-HT1F (Homo sapiens, UniProt P30939)
T5 sequence (P30939 1-366): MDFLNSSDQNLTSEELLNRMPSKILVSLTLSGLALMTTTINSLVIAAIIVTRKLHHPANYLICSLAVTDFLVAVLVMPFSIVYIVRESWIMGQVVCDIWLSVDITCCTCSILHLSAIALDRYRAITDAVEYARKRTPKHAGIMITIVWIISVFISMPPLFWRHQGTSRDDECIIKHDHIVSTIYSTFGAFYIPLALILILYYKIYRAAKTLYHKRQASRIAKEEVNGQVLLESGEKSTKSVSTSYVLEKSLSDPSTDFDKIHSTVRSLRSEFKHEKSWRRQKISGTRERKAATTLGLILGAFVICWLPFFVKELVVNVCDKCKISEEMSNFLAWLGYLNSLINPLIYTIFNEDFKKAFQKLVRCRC
Test: 5-HT receptor activity (Table 3), 5-HT1F
Type: cell-based
Details: not given

SMILES | Eff [%]
CN(C)CCc1c[nH]c2cccc(O)c12 [psilocin, reference compound] | 93

Target: 5-HT1D (Homo sapiens, UniProt P28221)
Test: 5-HT receptor activity (Table 3), 5-HT1D
Type: cell-based
Details: not given

Sequence of 5-HT1D (P28221 whole entry, species assumed): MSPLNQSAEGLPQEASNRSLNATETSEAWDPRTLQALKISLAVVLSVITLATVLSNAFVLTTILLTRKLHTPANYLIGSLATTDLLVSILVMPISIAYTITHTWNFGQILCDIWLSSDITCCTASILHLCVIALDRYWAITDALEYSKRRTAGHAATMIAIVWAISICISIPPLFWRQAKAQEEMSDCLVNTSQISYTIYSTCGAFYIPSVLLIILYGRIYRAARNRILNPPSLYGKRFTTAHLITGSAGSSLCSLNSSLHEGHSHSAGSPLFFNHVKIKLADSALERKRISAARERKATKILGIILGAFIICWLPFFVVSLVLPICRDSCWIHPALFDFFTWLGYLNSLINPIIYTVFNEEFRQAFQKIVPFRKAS

SMILES | Eff [%]
CN(C)CCc1c[nH]c2cccc(O)c12 [psilocin, reference compound] | 102

Target: T1, 5-HT2A
Test: 5-HT receptor activity (Table 3), 5-HT2A
Type: cell-based
Details: 5-HT2A, Table 3

SMILES | Eff [%]
CN(C)CCc1c[nH]c2cccc(O)c12 [psilocin, reference compound] | 80

Target: 5-HT4 (Homo sapiens, UniProt Q13639)
Test: 5-HT receptor activity (Table 3), 5-HT4
Type: cell-based
Details: not given

Sequence of 5-HT4 (Q13639 whole entry, species assumed): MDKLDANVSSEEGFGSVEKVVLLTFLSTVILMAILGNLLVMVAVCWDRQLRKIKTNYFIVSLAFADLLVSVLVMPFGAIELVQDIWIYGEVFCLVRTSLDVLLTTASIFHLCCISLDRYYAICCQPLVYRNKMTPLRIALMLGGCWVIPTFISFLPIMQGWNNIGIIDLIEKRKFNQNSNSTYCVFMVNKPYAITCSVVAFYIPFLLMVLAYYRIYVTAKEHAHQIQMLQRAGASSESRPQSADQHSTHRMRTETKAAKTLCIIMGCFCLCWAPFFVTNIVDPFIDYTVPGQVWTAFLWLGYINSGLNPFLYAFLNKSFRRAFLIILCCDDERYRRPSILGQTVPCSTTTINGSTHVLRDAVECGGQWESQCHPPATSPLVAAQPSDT

SMILES | Eff [%]
CN(C)CCc1c[nH]c2cccc(O)c12 [psilocin, reference compound] | 81
